Source: ChEMBL document CHEMBL5143721, “Novel Hydroxychalcone-Based Dual Inhibitors of Aldose Reductase and α-Glucosidase as Potential Therapeutic Agents against Diabetes Mellitus and Its Complications” (J Med Chem, 2022)
Calls of active or inactive are those of the source. The rule behind the calls is not given here.

What was measured:
[1] = Antioxidant activity assessed as DPPH radical scavenging activity at 10 uM incubated for 30 mins by DPPH assay relative to control; type: functional
[2] = system: Rattus norvegicus; assay: Antidiabetic activity against 12 hrs fasted STZ-induced diabetic Sprague-Dawley rat model assessed as reduction in blood glucose level at 160 mg/kg, IG administered once daily for 28 days followed by glucose addition after 30 mins post cpd treatment and measured after 30 mins post glucose treatment by oral glucose tolerance test; type: functional, organism-based; settings: time 673.0 hrs
[3] = system: Brain; assay: Antioxidant activity in rat brain homogenate assessed as inhibition of lipid peroxidation by measuring MDA concentration at 5 uM by TBARS assay relative to control; type: functional, tissue-based; set-up: scale not given: the % may be the effect or the level left
[4] = system: Rattus norvegicus; assay: Antidiabetic activity against STZ-induced diabetic Sprague-Dawley rat model assessed as reduction in triglycerides level in liver at 160 mg/kg, IG administered once daily for 28 days relative to control; type: functional; set-up: scale not given: the % may be the effect or the level left; settings: time 28 day
[5] = system: HEK-293T; assay: Cytotoxicity against HEK293T cells at 15 to 200 micromol/L by MTT assay; type: toxicity, cell-based; settings: human, dose 15-200 µmol/L
[6] = system: Rattus norvegicus; assay: Antidiabetic activity against STZ-induced diabetic Sprague-Dawley rat model assessed as increase in liver glycogen levels at 160 mg/kg, IG administered once daily for 28 days; type: functional; settings: time 28 day
[7] = Octanol/buffer distribution coefficient, log D of compound at pH 7.4 incubated for 24 hrs by shake flask based HPLC method; type: physicochemical
[8] = system: Brain; assay: Antioxidant activity in rat brain homogenate assessed as inhibition of lipid peroxidation by measuring MDA concentration at 50 uM by TBARS assay relative to control; type: functional, tissue-based; set-up: scale not given: the % may be the effect or the level left
[9] = Antioxidant activity assessed as DPPH radical scavenging activity at 5 uM incubated for 30 mins by DPPH assay relative to control; type: functional
[10] = Inhibition of Wistar rat lens ALR2 using D,L-glyceraldehyde as substrate preincubated for 10 mins in presence of NADPH followed by substrate addition and measured after 4 mins; type: tissue-based
[11] = organism: Rattus norvegicus; assay: Selectivity index, ratio of IC50 for Wistar rat kidney ALR1 to IC50 for Wistar rat lens ALR2
[12] = Antioxidant activity assessed as DPPH radical scavenging activity at 1 uM incubated for 30 mins by DPPH assay relative to control; type: functional
[13] = In vivo inhibition of ALR2 in STZ-induced diabetic Sprague-Dawley rat model assessed as reduction in ALR2 activity in lens at 160 mg/kg, IG administered once daily for 28 days relative to control; type: functional; set-up: scale not given: the % may be the effect or the level left; settings: time 28 day
[14] = system: Rattus norvegicus; assay: Antidiabetic activity against STZ-induced diabetic Sprague-Dawley rat model assessed as reduction in total cholesterol level in serum at 160 mg/kg, IG administered once daily for 28 days relative to control; type: functional; set-up: scale not given: the % may be the effect or the level left; settings: time 28 day
[15] = system: Brain; assay: Antioxidant activity in rat brain homogenate assessed as inhibition of lipid peroxidation by measuring MDA concentration at 10 uM relative to control; type: functional, tissue-based; set-up: scale not given: the % may be the effect or the level left
[16] = Antioxidant activity assessed as DPPH radical scavenging activity at 50 uM incubated for 30 mins by DPPH assay relative to control; type: functional
[17] = Antioxidant activity assessed as DPPH radical scavenging activity at 100 uM incubated for 30 mins by DPPH assay relative to control; type: functional
[18] = system: Rattus norvegicus; assay: Antidiabetic activity against STZ-induced diabetic Sprague-Dawley rat model assessed as reduction in triglycerides level in serum at 160 mg/kg, IG administered once daily for 28 days relative to control; type: functional; set-up: scale not given: the % may be the effect or the level left; settings: time 28 day
[19] = system: Brain; assay: Antioxidant activity in rat brain homogenate assessed as inhibition of lipid peroxidation by measuring MDA concentration at 100 uM by TBARS assay relative to control; type: functional, tissue-based; set-up: scale not given: the % may be the effect or the level left
[20] = system: Rattus norvegicus; assay: Antidiabetic activity against STZ-induced diabetic Sprague-Dawley rat model assessed as reduction in fasting blood glucose level at 160 mg/kg, IG administered once daily for 28 days; type: functional; set-up: scale not given: the % may be the effect or the level left; settings: time 28 day
[21] = system: Rattus norvegicus; assay: Antidiabetic activity against 12 hrs fasted STZ-induced diabetic Sprague-Dawley rat model assessed as reduction in AUC of blood glucose level at 160 mg/kg, IG administered once daily for 28 days followed by maltose addition after 30 mins post cpd treatment and measured after 30 mins post maltose treatment; type: functional; set-up: scale not given: the % may be the effect or the level left; settings: time 673 hrs
[22] = Inhibition of Wistar rat kidney ALR1 using sodium D-glucuronate as substrate preincubated for 10 mins in presence of NADPH followed by substrate addition and measured after 4 mins; type: tissue-based
[23] = system: Brain; assay: Antioxidant activity in rat brain homogenate assessed as inhibition of lipid peroxidation by measuring MDA concentration at 1 uM by TBARS assay relative to control; type: functional, tissue-based; set-up: scale not given: the % may be the effect or the level left
[24] = In vivo inhibition of ALR2 in STZ-induced diabetic Sprague-Dawley rat model assessed as reduction in sorbitol accumulation in red blood cells at 160 mg/kg, IG administered once daily for 28 days by colorimetric assay relative to control; type: functional; set-up: scale not given: the % may be the effect or the level left; settings: time 28 day
[25] = system: Rattus norvegicus; assay: Antidiabetic activity against STZ-induced diabetic Sprague-Dawley rat model assessed as reduction in total cholesterol level in serum at 80 mg/kg, IG administered once daily for 28 days relative to control; type: functional; set-up: scale not given: the % may be the effect or the level left; settings: time 28 day
[26] = In vivo inhibition of ALR2 in STZ-induced diabetic Sprague-Dawley rat model assessed as reduction in sorbitol accumulation in lens at 80 mg/kg, IG administered once daily for 28 days by colorimetric assay relative to control; type: functional; set-up: scale not given: the % may be the effect or the level left; settings: time 28 day
[27] = In vivo inhibition of ALR2 in STZ-induced diabetic Sprague-Dawley rat model assessed as reduction in ALR2 activity in lens at 80 mg/kg, IG administered once daily for 28 days relative to control; type: functional; set-up: scale not given: the % may be the effect or the level left; settings: time 28 day
[28] = system: Rattus norvegicus; assay: Antidiabetic activity against STZ-induced diabetic Sprague-Dawley rat model assessed as reduction in triglycerides level in serum at 80 mg/kg, IG administered once daily for 28 days relative to control; type: functional; set-up: scale not given: the % may be the effect or the level left; settings: time 28 day
[29] = system: Rattus norvegicus; assay: Antioxidant activity against STZ-induced diabetic Sprague-Dawley rat model assessed as reduction in SOD level at 80 mg/kg, IG administered once daily for 28 days relative to control; type: functional; set-up: scale not given: the % may be the effect or the level left; settings: time 28 day
[30] = system: Rattus norvegicus; assay: Antidiabetic activity against STZ-induced diabetic Sprague-Dawley rat model assessed as reduction in fasting blood glucose level at 80 mg/kg, IG administered once daily for 28 days; type: functional; set-up: scale not given: the % may be the effect or the level left; settings: time 28 day
[31] = system: Rattus norvegicus; assay: Antioxidant activity against STZ-induced diabetic Sprague-Dawley rat model assessed as reduction in SOD level at 160 mg/kg, IG administered once daily for 28 days relative to control; type: functional; set-up: scale not given: the % may be the effect or the level left; settings: time 28 day
[32] = system: Rattus norvegicus; assay: Antidiabetic activity against STZ-induced diabetic Sprague-Dawley rat model assessed as reduction in triglycerides level in liver at 80 mg/kg, IG administered once daily for 28 days relative to control; type: functional; set-up: scale not given: the % may be the effect or the level left; settings: time 28 day
[33] = system: Rattus norvegicus; assay: Antioxidant activity against STZ-induced diabetic Sprague-Dawley rat model assessed as reduction in GSH level at 160 mg/kg, IG administered once daily for 28 days relative to control; type: functional; set-up: scale not given: the % may be the effect or the level left; settings: time 28 day
[34] = In vivo inhibition of ALR2 in STZ-induced diabetic Sprague-Dawley rat model assessed as reduction in sorbitol accumulation in red blood cells at 80 mg/kg, IG administered once daily for 28 days by colorimetric assay relative to control; type: functional; set-up: scale not given: the % may be the effect or the level left; settings: time 28 day
[35] = system: Rattus norvegicus; assay: Antidiabetic activity against STZ-induced diabetic Sprague-Dawley rat model assessed as reduction in total cholesterol level in liver at 80 mg/kg, IG administered once daily for 28 days relative to control; type: functional; set-up: scale not given: the % may be the effect or the level left; settings: time 28 day
[36] = system: Rattus norvegicus; assay: Antioxidant activity against STZ-induced diabetic Sprague-Dawley rat model assessed as reduction in MDA level at 80 to 160 mg/kg, IG administered once daily for 28 days relative to control; type: functional, organism-based; settings: dose 80-160 mg/kg, time 28.0 day
[37] = In vivo inhibition of ALR2 in STZ-induced diabetic Sprague-Dawley rat model assessed as reduction in sorbitol accumulation in lens at 160 mg/kg, IG administered once daily for 28 days by colorimetric assay relative to control; type: functional; set-up: scale not given: the % may be the effect or the level left; settings: time 28 day
[38] = system: Rattus norvegicus; assay: Antidiabetic activity against STZ-induced diabetic Sprague-Dawley rat model assessed as reduction in total cholesterol level in liver at 160 mg/kg, IG administered once daily for 28 days relative to control; type: functional; set-up: scale not given: the % may be the effect or the level left; settings: time 28 day
[39] = system: Rattus norvegicus; assay: Antioxidant activity against STZ-induced diabetic Sprague-Dawley rat model assessed as reduction in GSH level at 80 mg/kg, IG administered once daily for 28 days relative to control; type: functional; set-up: scale not given: the % may be the effect or the level left; settings: time 28 day
[40] = system: Rattus norvegicus; assay: Antidiabetic activity against 12 hrs fasted STZ-induced diabetic Sprague-Dawley rat model assessed as reduction in AUC of blood glucose at 80 mg/kg, IG administered once daily for 28 days followed by maltose addition after 30 mins post cpd treatment and measured after 30 mins post maltose treatment; type: functional; set-up: scale not given: the % may be the effect or the level left

logD at 24 h [7]	IC50 [10]	Ratio IC50 [11]	SMILES	Activity [1]	Activity [2]	Activity [3]	Activity [4]	Activity [5]	Activity [6]	Activity [8]	Activity [9]	Activity [12]	Activity [13]	Activity [14]	Activity [15]	Activity [16]	Activity [17]	Activity [18]	Activity [19]	Activity [20]	further results
0.98	0.149 µM	39.7	CC(C)=CCn1c(=O)oc2c(C(=O)/C=C/c3ccc(O)c(O)c3)cccc21	93%	Active	52%	32.8%	Non-Toxic	43.83%	90.7%	90.9%	41.2%	47.2%	50.7%	65.8%	96%	98%	64.3%	97%	20.7%	Activity [21]: 21.16%; IC50 [22]: 7.48 µM; Activity [23]: 35%
0.86	0.114 µM	54.6	COC(=O)Cn1c(=O)oc2c(C(=O)/C=C/c3ccc(O)c(O)c3)cccc21	94.9%	Active	60.5%	33.8%	Non-Toxic	36.58%	91.6%	89.4%	41.2%	52.1%	44.1%	77.5%	96.5%	97.5%	56.5%	97.5%	30.4%	Activity [24]: 64.7%; Activity [25]: 46%; Activity [26]: 41.7%; Activity [27]: 60.8%; Activity [28]: 44%; Activity [29]: 35.5%; Activity [30]: 20.5%; Activity [31]: 81.3%; Activity [32]: 30.6%; Activity [33]: 52.3%; Activity [34]: 59.7%; Activity [35]: 32.1%; Activity [36]: Active; Activity [37]: 34.1%; Activity [38]: 3.1%; IC50 [22]: 6.22 µM; Activity [39]: 26.8%; Activity [23]: 35.8%
–	–	–	C[C@H]1O[C@H](O[C@H]2[C@H](O)[C@@H](O)[C@@H](O[C@H]3[C@H](O)[C@@H](O)C(O)O[C@@H]3CO)O[C@@H]2CO)[C@H](O)[C@@H](O)[C@@H]1N[C@H]1C=C(CO)[C@@H](O)[C@H](O)[C@H]1O (stereo partly drawn) [ACARBOSE]	–	–	–	–	–	–	–	–	–	–	–	–	–	–	–	–	–	Activity [30]: 16.2%; Activity [40]: 22.35%
